Laboratory results published in patent US20230111310A1, “CARBOXYLIC ACID DERIVATIVE-SUBSTITUTED IMINO ARYL COMPOUND, PREPARATION METHOD THEREFOR, HERBICIDAL COMPOSITION AND USE THEREOF” (Qingdao Kingagroot Chemical Compound Co., Ltd., priority 2020, published 2023).

Legend:
Test in all cases: Weeding effect in post-emergence stage
Type in all cases: in vivo
Conditions in all cases: Dose 15 g/ha; level of fresh weight growth control rate
[1] = system: Abutilon theophrasti
Summary of the method: (§1)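 Weeds were treated post-emergence at 2-3 leaves with compound doses from 7.5 up to 500 g/ha, formulated in acetone–Tween 80 with methyl oleate synergist. Efficacy was assessed as growth control after 3 weeks.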

[2] = system: Alopecurus japonicus
Summary of the method: as §1

[3] = system: Digitaria sanguinalis
Summary of the method: as §1

[4] = system: Eleusine indica
Summary of the method: as §1

[5] = system: Setaria viridis
Summary of the method: as §1

[6] = system: Echinochloa crusgalli
Summary of the method: as §1

Compound	Weeding effect in post-emergence stage, Abutilon theophrasti [1]	Weeding effect in post-emergence stage, Alopecurus japonicus [2]	Weeding effect in post-emergence stage, Digitaria sanguinalis [3]	Weeding effect in post-emergence stage, Eleusine indica [4]	Weeding effect in post-emergence stage, Setaria viridis [5]	Weeding effect in post-emergence stage, Echinochloa crusgalli [6]
CCOC(=O)C(C)O/N=C/c1cc(-n2c(=O)cc(C(F)(F)F)n(C)c2=O)c(F)cc1Cl (racemic) [Compound 196]	5 (Level 5: growth control rate is above 85%)	5 (Level 5: growth control rate is above 85%)	5 (Level 5: growth control rate is above 85%)	5 (Level 5: growth control rate is above 85%)	5 (Level 5: growth control rate is above 85%)	5 (Level 5: growth control rate is above 85%)
CCCOC(=O)C(C)O/N=C/c1cc(-n2c(=O)cc(C(F)(F)F)n(C)c2=O)c(F)cc1Cl (racemic) [Compound 198]	5 (Level 5: growth control rate is above 85%)	5 (Level 5: growth control rate is above 85%)	5 (Level 5: growth control rate is above 85%)	5 (Level 5: growth control rate is above 85%)	5 (Level 5: growth control rate is above 85%)	5 (Level 5: growth control rate is above 85%)
CC(C)OC(=O)C(C)O/N=C/c1cc(-n2c(=O)cc(C(F)(F)F)n(C)c2=O)c(F)cc1Cl (racemic) [Compound 199]	5 (Level 5: growth control rate is above 85%)	5 (Level 5: growth control rate is above 85%)	5 (Level 5: growth control rate is above 85%)	5 (Level 5: growth control rate is above 85%)	5 (Level 5: growth control rate is above 85%)	5 (Level 5: growth control rate is above 85%)
CCCCOC(=O)C(C)O/N=C/c1cc(-n2c(=O)cc(C(F)(F)F)n(C)c2=O)c(F)cc1Cl (racemic) [Compound 200]	5 (Level 5: growth control rate is above 85%)	5 (Level 5: growth control rate is above 85%)	5 (Level 5: growth control rate is above 85%)	5 (Level 5: growth control rate is above 85%)	5 (Level 5: growth control rate is above 85%)	5 (Level 5: growth control rate is above 85%)
CC(C)COC(=O)C(C)O/N=C/c1cc(-n2c(=O)cc(C(F)(F)F)n(C)c2=O)c(F)cc1Cl (racemic) [Compound 201]	5 (Level 5: growth control rate is above 85%)	5 (Level 5: growth control rate is above 85%)	5 (Level 5: growth control rate is above 85%)	5 (Level 5: growth control rate is above 85%)	5 (Level 5: growth control rate is above 85%)	5 (Level 5: growth control rate is above 85%)
CC(O/N=C/c1cc(-n2c(=O)cc(C(F)(F)F)n(C)c2=O)c(F)cc1Cl)C(=O)OC(C)(C)C (racemic) [Compound 202]	5 (Level 5: growth control rate is above 85%)	5 (Level 5: growth control rate is above 85%)	5 (Level 5: growth control rate is above 85%)	5 (Level 5: growth control rate is above 85%)	5 (Level 5: growth control rate is above 85%)	5 (Level 5: growth control rate is above 85%)
CCCCCOC(=O)C(C)O/N=C/c1cc(-n2c(=O)cc(C(F)(F)F)n(C)c2=O)c(F)cc1Cl (racemic) [Compound 203]	5 (Level 5: growth control rate is above 85%)	5 (Level 5: growth control rate is above 85%)	5 (Level 5: growth control rate is above 85%)	5 (Level 5: growth control rate is above 85%)	5 (Level 5: growth control rate is above 85%)	5 (Level 5: growth control rate is above 85%)
CCCCCCOC(=O)C(C)O/N=C/c1cc(-n2c(=O)cc(C(F)(F)F)n(C)c2=O)c(F)cc1Cl (racemic) [Compound 204]	5 (Level 5: growth control rate is above 85%)	5 (Level 5: growth control rate is above 85%)	5 (Level 5: growth control rate is above 85%)	5 (Level 5: growth control rate is above 85%)	5 (Level 5: growth control rate is above 85%)	5 (Level 5: growth control rate is above 85%)
CCCCCCCOC(=O)C(C)O/N=C/c1cc(-n2c(=O)cc(C(F)(F)F)n(C)c2=O)c(F)cc1Cl (racemic) [Compound 205]	5 (Level 5: growth control rate is above 85%)	5 (Level 5: growth control rate is above 85%)	5 (Level 5: growth control rate is above 85%)	5 (Level 5: growth control rate is above 85%)	5 (Level 5: growth control rate is above 85%)	5 (Level 5: growth control rate is above 85%)
CCCCCCCCOC(=O)C(C)O/N=C/c1cc(-n2c(=O)cc(C(F)(F)F)n(C)c2=O)c(F)cc1Cl (racemic) [Compound 206]	5 (Level 5: growth control rate is above 85%)	5 (Level 5: growth control rate is above 85%)	5 (Level 5: growth control rate is above 85%)	5 (Level 5: growth control rate is above 85%)	5 (Level 5: growth control rate is above 85%)	5 (Level 5: growth control rate is above 85%)
CCCCCCC(C)OC(=O)C(C)O/N=C/c1cc(-n2c(=O)cc(C(F)(F)F)n(C)c2=O)c(F)cc1Cl (racemic) [Compound 207]	5 (Level 5: growth control rate is above 85%)	5 (Level 5: growth control rate is above 85%)	5 (Level 5: growth control rate is above 85%)	5 (Level 5: growth control rate is above 85%)	5 (Level 5: growth control rate is above 85%)	5 (Level 5: growth control rate is above 85%)
C=CCOC(=O)C(C)O/N=C/c1cc(-n2c(=O)cc(C(F)(F)F)n(C)c2=O)c(F)cc1Cl (racemic) [Compound 208]	5 (Level 5: growth control rate is above 85%)	5 (Level 5: growth control rate is above 85%)	5 (Level 5: growth control rate is above 85%)	5 (Level 5: growth control rate is above 85%)	5 (Level 5: growth control rate is above 85%)	5 (Level 5: growth control rate is above 85%)
C=CCCOC(=O)C(C)O/N=C/c1cc(-n2c(=O)cc(C(F)(F)F)n(C)c2=O)c(F)cc1Cl (racemic) [Compound 209]	5 (Level 5: growth control rate is above 85%)	5 (Level 5: growth control rate is above 85%)	5 (Level 5: growth control rate is above 85%)	5 (Level 5: growth control rate is above 85%)	5 (Level 5: growth control rate is above 85%)	5 (Level 5: growth control rate is above 85%)
